The text below walks through data of article PMC6278385, “Preclinical Pharmacokinetics of C118P, a Novel Prodrug of Microtubules Inhibitor and Its Metabolite C118 in Mice, Rats, and Dogs” (Molecules, 2018).

Data set [1] in a line: Plasma protein binding by ultrafiltration. It counts as in vitro ADME. To be noted: human plasma, read-out: fu (fraction unbound). How it is done: Both C118P and C118 were stable in the plasma with EDTA as anticoagulant. The non-specific binding to the ultrafilter membrane was negligible. The extent of plasma protein binding was reported as a fraction unbound (fu, %) value which was calculated using the formula fu = PF/TC × 100%, where TC is test compound (C118P or C118) concentration in sample before ultrafiltration, and PF is the test compound concentration in the ultrafiltrate (Table 1).
Plasma protein binding of C118P and C118 were determined by ultrafiltration at four concentrations (C118P: 400, 4000, 40,000, and 400,000 ng/mL, C118: 20, 200, 2000, and 20,000 ng/mL) in pooled plasma from Sprague-Dawley rats, beagle dogs, and humans. Stock solutions of C118P and C118 dissolved in methanol were diluted with blank plasma to achieve the test concentrations (the methanol volume is less than 10% of the plasma). The plasma was incubated for 1 h in a water bath at 37 °C. The total concentration of C118P and C118 of spiked plasma (TC) was analyzed by previously described methods. Ultrafiltration was performed with activated high speed centrifugal tubes (Millipore, Burlington, MA, USA). Plasma samples (0.4 mL) were added to the upper layer of the high speed centrifugal tubes, and then centrifuged at 12,000 g for 10 min. The concentration of unbound C118P and C118 in filtrate (PF) was similarly determined by the previously described methods. The percentage of free fraction (fu) of C118P and C118 was calculated as follows: fu = (PF/TC) × 100%.

Data set [2] is described as follows: Tandem two-compartment PK model of C118P and C118. The class given is in vivo, rat. The note with it: for K12 / K21 / V1 / K10: rat; for K12 / K21 / V1: two-compartmental model parameter (Table S1); for K10: two-compartmental model, K10 supposed to be transformation rate of C118P into C118, simulated. From the text: (§1) Due to the rapid transformation of C118P into C118, there is no direct way to calculate the rate of transformation, thus a two-compartment model with metabolism involved was developed (Figure S3). The transformation rate from C118P into C118 was simulated by fitting the two-serial data of prodrug C118P and C118 in rats and dogs.
(§2) 3. The pharmacokinetic profile of C118P and C118 was simulated by two compartmental models. To simplify the model, the excretion rate of C118P from central compartment was supposed to be zero. In this model, both C118P and C118 were described by two-compartmental model, with elimination rate of k(0,3) for C118. The connection between C118P and C118 is by the uniflow of transformation rate of k(3,1) since the metabolism of C118P to C118 is irreversible(Figure S3).
(§3) Figure S3. The pharmacokinetic model of C118P and C118 in rat after i.v C118P. ex1: the injection dose of C118P, s1: concentration of C118 in central compartment. s2: concentration of C118 in central compartment, q1 and q3 represent the central compartment of C118P and C118, respectively.
(§4) The q2 and q4 represent the peripheral compartment of C118P and C118, respectively. k(0,3) represents the elimination rate of C118 from central compartment. k(3,1) represents the transformation rate of C118P to C118. k(2,1) and k(4,3) represent the distribution rate of C118P and C118 from central compartment to peripheral compartment. k(1,2) and k(3,4) represent the return rate of C118P and C118 from peripheral compartment to central compartment.
(§5) For prodrug pharmacokinetic prediction, the transformation of prodrug to the active drug should be studied in different system to get the right data. With the help of modeling, the transformation ratio of C118P to C118 was calculated by a tandem two-compartment model (SAAMII, University of Washington). In simulation study, the initial parameters are very important for accurate prediction.
(§6) The initial compartmental model parameters of rat and dog were first evaluated by Winnonlin using two-compartmental model at low dose, with intravenous for C118P and extra vessel for C118 since […]
(§7) (1 picture or pasted object on this page, not shown here)
(§8) C118 was transformed from C118P. The initial parameters used in the simulation were listed in Table S1. Using these parameters, the simulation of PK profiles of rat and dog are well fit to the data from in vivo at higher dose (Figure S4). The simulation of C118P and C118, the transformation rate of C118P to C118 is calculated and transformation ratio (k) is about 18.3671/h and12.588 1/h for rats and dogs, respectively.
(§9) Figure S4. The simulation of PK profile at 20 mg/kg in rat(A) and 6 mg/kg(B) in dog based on initial parameters calculated by Winnonlin. (s1 represent the simulated data for C118 and s2 represent the simulated data for C118P, plasma 1 represent the experimental data for C118 and plasma 2 represent the experimental data for C118P.) […]

Data set [3] in a line: Tandem two-compartment PK model of C118P and C118. To be noted: dog; for K12 / K21 / V1: two-compartmental model parameter (Table S1); for K10: two-compartmental model, K10 supposed to be transformation rate of C118P into C118, simulated. The class given is in vivo.
Description: as §1, §2, §3, §4, §5, §6, §7, §8, §9

Data set [4] is described as follows: Metabolic stability in liver microsomes. It counts as in vitro ADME, monkey. The method, then: (§10) The in vitro metabolic stability of C118P and C118 were estimated in mice, rat, dog, monkey, and human liver microsomes (Research Institute for Liver Diseases Co. Ltd (Shanghai, China)). The incubation mixture contains C118P or C118, NADP (1.0 mM), G-6-P (10 mM), PDH (2 units/mL), MgCl2 (10 mM), and liver microsomes (mice, rats, dogs, monkeys, or humans, 1.0 mg protein/mL) in phosphate buffer. A total of 200 μL of the mixture was removed and quenched with 600 μL acetonitrile in an ice bath at 0, 15, 30, 60, 120, and 240 min after the addition of NADPH.
(§11) CLint, in vitro (the in vitro intrinsic clearance, Equation (1)) was calculated from the t1/2 of C118 disappearance, where Cprotein is the protein concentration during the incubation, and t1/2 was determined by the slope (k) of the log-linear regression analysis of the concentration versus time profiles; thus, t1/2 = ln2/k. […] The in vivo hepatic clearance (CLH, Equation (3)) was then calculated by using CLint and hepatic blood flow, Q ([…] mL·min^−1·kg^−1 in rats, dogs, monkey, and humans, respectively), in the well-stirred liver model disregarding all binding. The hepatic extraction ratio was calculated as CLH divided by Q. CLint, in vitro = (0.693/t1/2) × (1/Cprotein)(1) CLint = CLint, in vitro × (mg protein/g liver weight) × (gliver weight/kg body weight)(2) CLH = (Q × CLint)/(Q + CLint)(3)
A general note: Liver microsomes are a subcellular fraction often used to study metabolism.

Data set [5] in a line: Metabolic stability in liver microsomes. The class given is in vitro ADME, rat. The method, then:
as §10, §11

What is called fraction unbound is the share of the substance not bound to proteins or other matrix. On to `COc1cc(OC)cc(-c2nc[nH]c2-c2ccc(OC)c(OP(=O)([O-])[O-])c2)c1.[Na+].[Na+]` [C118P], for which the fraction unbound at 1 h, 400 ng/mL in data set [1] (C118P 400 ng/mL) came to 0.022 ± 0.001. Besides, in data set [1] (C118P 4000 ng/mL), the fraction unbound at 1 h, 4000 ng/mL was 0.027. The fraction unbound at 1 h, 40000 ng/mL in data set [1] (C118P 40,000 ng/mL) is 0.022 ± 0.001. Further, the fraction unbound at 1 h, 400000 ng/mL in data set [1] (C118P 400,000 ng/mL) was 0.057 ± 0.004. In addition, in data set [2], the K12 was 6.535 h⁻¹, the K21 stood at 18.281 h⁻¹, the V1 is 0.05441 L/kg and the K10 is 18.369 h⁻¹. Further, the “transformation ratio (k) of C118P to C118” value in data set [2] (rats, simulated with tandem two-compartment model) was roughly 18.367 h⁻¹. In data set [3], this compound showed a K12 of 1.844 h⁻¹, a K21 of 4.727 h⁻¹, a V1 of 0.05097 L/kg and a K10 of 12.558 h⁻¹. For the same compound, in data set [4] (monkey liver microsomes (Figure S1)), the “stability in liver microsomes” value is given as “quite stable”. Besides, the “stability in liver microsomes” value in data set [5] (rat liver microsomes (Figure S1)) is “quite stable”.

In general, half-life refers to the time in which the quantity being followed falls by half. `COc1cc(OC)cc(-c2nc[nH]c2-c2ccc(OC)c(O)c2)c1` [C118]: the fraction unbound at 1 h, 200 ng/mL in data set [1] (pooled plasma, C118 200 ng/mL) was found to be 0.028 ± 0.002. Also, the fraction unbound at 1 h, 2000 ng/mL in data set [1] (pooled plasma, C118 2000 ng/mL) turned out to be 0.047 ± 0.002. Further, in data set [1] (pooled plasma, C118 20,000 ng/mL), the fraction unbound at 1 h, 20000 ng/mL was 0.038 ± 0.002. Besides, the K12 in data set [2] was 0.3516 h⁻¹; in data set [3], 1.3247 h⁻¹. Moreover, the results for the K21 in data set [2] and in data set [3] were 0.0121 h⁻¹ and 0.2110 h⁻¹, respectively. The results for the V1 in data set [2] and in data set [3] were 2.708 L/kg and 0.2205 L/kg, respectively. Also, the K10 in data set [2] is 0.9897 h⁻¹; in data set [3], 3.1444 h⁻¹. For the same compound, the “CLint, in vitro” value in data set [4] (monkey liver microsomes) is listed as 318.6 μL·min^−1·mg^−1 Protein; in data set [5] (rat liver microsomes) it was 67.0 μL·min^−1·mg^−1 Protein. Also, the half-life in data set [4] (monkey liver microsomes, 1.0 mg protein/mL, C118 disappearance) worked out at 2.2 min; in data set [5] (Sprague-Dawley, rat liver microsomes, 1.0 mg protein/mL, C118 disappearance), 10.3 min. The CLint in data set [4] (monkey, scaled from CLint, in vitro) is 252.8 mL/min/kg; in data set [5] (rat, scaled from CLint, in vitro), 115.3 mL/min/kg. In addition, the “Extrapolated CLH” value in data set [4] (monkey, well-stirred liver model) is 37.5 mL/min/kg; in data set [5] (rat, well-stirred liver model) it was 43.6 mL/min/kg.
